{"source": "patent US20090054507A1", "about": "“CONTROL OF MALIGNANT CELLS BY KINASE INHIBITION” (CLEVELAND STATE UNIVERSITY, priority 2006, published 2009)", "key": {"WM-164 xenografts": {"test_system": "WM-164 xenografts", "assay": "In vivo therapy of WM-164 xenografts, tumor volume", "design": "species or system mice", "text": "Creation of the xenografts MCF-7, SW-480 and WM-164. Immunodeficient male and female athymic nude nu/nu mice were used, provided and housed by Dr. Lindner, DJ from Taussig Cancer Center, Cleveland Clinic and Case Western Reserve University. Mice were checked every day. Mice were housed in filtered air flow cabinets with autoclaved bedding at a density of 5 mice/cage. They were fed autoclaved Purina Lab Rodent Chow® 5010 and HCl-acidified distilled water ad libitum and were placed in rooms with controlled temperature, humidity and 12-hr light-dark cycles. Procedures involving animals and their care were conducted in conformity with the institutional guidelines that are in compliance with national and international laws and policies (EEC Council Directive 86/609, OJL 358, Dec. 1, 1987, and the National Institutes of Health Guide for the Care and Use of Laboratory, Animals, NIH Publication 85-23, 1985).\nFor engraftment, cells in cell culture media were injected. […] Cells were counted with a hemacytometer using Trypan blue (only live cells were counted). […]\nIn vivo therapy with DMAT of WM-164 xenografts. […] Tumor diameters were measured using a caliper and tumor volume was calculated using the prolate-spheroid formula. […]"}, "WM-164 cells [1]": {"test_system": "WM-164 cells", "assay": "Anchorage independence in soft agar, WM-164", "type": "cell-based, human", "conditions": "DMAT 10 μM, one week"}, "WM-164 cells [2]": {"test_system": "WM-164 cells", "assay": "Proliferation assay in vitro, WM-164", "type": "cell-based, human", "conditions": "for cell counts: four days", "text": "(§1) Viability (proliferation) assay, Trypan blue exclusion. Cells were counted using a Neubauer hemacytometer."}, "MCF-7 cells [3]": {"test_system": "MCF-7 cells", "assay": "Anchorage independence in soft agar, MCF-7", "type": "cell-based, human", "conditions": "DMAT 10 μM, one week"}, "MCF-7 cells [4]": {"test_system": "MCF-7 cells", "assay": "Proliferation assay in vitro, MCF-7", "type": "cell-based, human", "conditions": "five days", "text": "as §1"}, "MCF-7 cells [5]": {"test_system": "MCF-7 cells", "assay": "Annexin V apoptosis/necrosis assay, MCF-7", "type": "cell-based, human", "description": "Apoptosis Assays using Flow Cytometry with Annexin V-FITC and propidium iodide (PI). For induction of typical apoptosis, cells were grown in the presence of 1 μM staurosporine (Sigma-Aldrich) for 6 hours. The staurosporine treated cells were stained as follows: control 1 with PI, control 2 with Annexin V-FITC and control 3 both PI and Annexin V-FITC in order to have the brightest controls for compensation and proper collection of the flow cytometry data. Cell necrosis was induced by heat shock (65° C. for 30 minutes). The stained control, both PI and Annexin V-FITC labeled, was then used as the reference in establishing the level of apoptosis induced by the treatments. Data was collected on logarithmic modes, two-colors. Annexin V-FITC corresponds to FL1 H channel, and PI to FL3H or FL2H channels.\nAnnexin V-FITC and PI apoptosis assay staining protocol. Apoptosis Annexin V-FITC and PI kit from BD Biosciences, CA, USA, was used. 10^5-10^6 cells were stained with 50 μg/ml PI and with 0.5 μg/ml FITC-labeled Annexin V using the staining protocol provided by the supplier. Samples were then analyzed immediately by flow cytometry."}, "[6]": {"assay": "In vivo toxicity study for DMAT", "design": "species or system mouse", "description": "In vivo toxicity study for DMAT. A male nude mouse (without tumors) was treated with DMAT to determine a toxicity level. A saturated solution of DMAT in DMSO was inoculated daily in the neck subcutaneously (100 μl of 100 mg/ml DMAT in DMSO). Therefore this animal received 10 mg DMAT per day. After 2 weeks this animal was sacrificed and organs were collected for further analysis."}, "MEG-01 cells [7]": {"test_system": "MEG-01 cells", "assay": "Thrombocytopoiesis / proplatelet formation by microscopy", "type": "cell-based, human", "description": "Light microscopy (phase contrast) and DAPI fluorescence microscopy. High quality pictures and live imaging were obtained at Cleveland Clinic Imaging Core (Cleveland, Ohio). DAPI staining of cultured MEG-01 cells was performed with fresh cells. For live imaging (observing a single cell for a 24 hour period of time) of the thrombocytopoiesis process, MEG-01 suspension cells were made adherent by using Fibronectin (FN) coated culture dishes. FN was used, at 5 μg/cm^2 and incubated at 37° C. for 1 h, as recommended by the supplier (BD Biosciences, Bedford, Mass., USA).\nScanning electron microscopy (SEM). Cell preparation and pictures were performed at the Microscopy Core Facility (Cleveland Clinic). Cells were grown for 4 days in the presence of 10 μM DMAT and then collected by differential centrifugation. Cells were fixed in glutaraldehyde and then further processed at the Core. The clot was prepared with platelets collected from MEG-01 cultures treated with 10 μM DMAT. Human thrombin 0.5 U/ml for 15 minutes was used to activate them."}, "MEG-01 cells [8]": {"test_system": "MEG-01 cells", "assay": "Flow cytometric DNA content assay using PI/RNAse A", "type": "cell-based, human", "conditions": "10 μM DMAT for 4 days", "description": "Flow cytometric DNA content assessment assay using PI/RNAse A. Cells were serum starved in order to synchronize them in the GO phase. Treatment with DMAT 10 μM for a period of 4 days was performed and then cells were collected for further processing. Cells were fixed in 80% cold Ethanol/PBS added drop-wise. Before PI staining cells were washed with sterile, RNAse, DNAse free, PBS buffer. Fixed cells were incubated with 50 μg/ml PI and 100 μg/ml RNAse A-I in hypotonic citrate staining buffer for 30 minutes in dark, at room temperature."}, "[9]": {"conditions": "200 mg/kg per day DMAT (in DMSO), subcutaneous in the neck, 2 weeks"}}, "note": "Entries after “also recorded” stand apart in the source; their conditions may differ.", "data": [{"compound": "CN(C)c1nc2c(Br)c(Br)c(Br)c(Br)c2[nH]1", "note": "[DMAT, 2-dimethylamino-4,5,6,7-tetrabromo-1H-benzimidazole]", "values": [{"measurement": "tumor volume", "setting": "WM-164 xenografts; DMAT 10 mg/kg (in DMSO) per day, fourteen days, control about 50 to about 1000 mm^3", "value": "only a slight increase in tumor volume"}, {"measurement": "response of xenograft tumors to treatment (summary)", "setting": "WM-164 xenografts; small tumors remained at the end of the treatment", "value": "significant reduction in tumor volume"}, {"measurement": "colonies in soft agar", "setting": "WM-164 cells [1]", "value": "much smaller and fewer colonies"}, {"measurement": "sensitivity of proliferation to DMAT compared with MCF-7 and SW-480", "setting": "WM-164 cells [2]", "value": "more resistant"}, {"measurement": "cell counts", "setting": "WM-164 cells [2]; 10 μM DMAT", "value": "cell counts between those of the control and those of the WM-164 cells treated with 20 μM"}, {"measurement": "cell counts", "setting": "WM-164 cells [2]; 20 μM DMAT", "value": "lowest cell counts"}, {"measurement": "colonies in soft agar", "setting": "MCF-7 cells [3]", "value": "much smaller and fewer colonies"}, {"measurement": "cell counts", "setting": "MCF-7 cells [4]; 10 μM DMAT", "value": "cell counts between the control and the MCF-7 cells treated with 20 μM"}, {"measurement": "cell counts / proliferation", "setting": "MCF-7 cells [4]; 20 μM DMAT", "value": "lowest cell counts; also recorded: proliferation arrest"}, {"measurement": "level of apoptotic cells", "setting": "MCF-7 cells [5]; 10 μM DMAT, 24 hours", "value": 28.4, "unit": "%"}, {"measurement": "level of necrotic cells", "setting": "MCF-7 cells [5]; 10 μM DMAT, 24 hours", "value": 8.7, "unit": "%"}, {"measurement": "level of apoptotic cells", "setting": "MCF-7 cells [5]; 20 μM DMAT", "value": 49.0, "unit": "%"}, {"measurement": "level of necrotic cells", "setting": "MCF-7 cells [5]; 20 μM DMAT", "value": 7.8, "unit": "%"}, {"measurement": "histological analyses of all organs vs control animal (not injected)", "setting": "[6]; 10 mg/day/animal for 2 weeks", "value": "did not show any difference"}, {"measurement": "behavior", "setting": "[6]; [9]", "value": "generally normal behavior"}, {"measurement": "liver size", "setting": "[6]; [9]", "value": "appeared to have increased in size"}, {"measurement": "injection site", "setting": "[6]; 200 mg/kg per day DMAT (in DMSO), subcutaneous in the neck, 2 weeks, male athymic nude mouse", "value": "irritated and swollen like a cyst"}, {"measurement": "thrombocytopoiesis", "setting": "MEG-01 cells [7]", "value": "induced thrombocytopoiesis"}, {"measurement": "proplatelet formation", "setting": "MEG-01 cells [7]; 10 μM DMAT, as early as from the second day", "value": "form proplatelet extensions"}, {"measurement": "DNA content (ploidy)", "setting": "MEG-01 cells [8]", "value": "become polyploid (ploidy higher than 2N)"}]}]}
